The results in this text go back to patent US7456187B2, “Furanopyrimidine compounds as potassium ion channel inhibitors” (Xention Limited, priority 2004, dated 2008).

In one data set the target is T1, human Kv1.5 (Homo sapiens, UniProt P22460).
T1 construct: expressed in transfected cells
The data set is described as follows: Kv1.5 Autopatch Electrophysiology (whole cell patch-clamp). It counts as cell-based. To be noted: compound at 1 μM; cells stably transfected with human Kv1.5; room temperature (22-24° C.); voltage step to 0 mV for 1000 ms from -80 mV, total charge. As to the method: Cells stably transfected with cDNA for human Kv1.5 (in pEF6::VA-His-TOPO) were grown in Dulbecco's Modified Eagle media (DMEM) alpha supplemented with 10% Fetal Calf Serum (FCS), 20 μl/ml penicillin (5000 U/ml) streptomycin (5000 μg/ml), 10 μl/ml [100×] glutamine, and blasticidin (7.5 μg/ml).
The external bathing solution contained (in mM): 150 NaCl, 10 KCl, […], 3 MgCl2, 1 CaCl2, 10 HEPES, pH 7.4. Patch pipettes were filled with an electrode solution of composition (in mM): 160 KCl, 0.5 MgCl2, 10 HEPES, 1 EGTA, pH 7.4 with KOH.
Compounds were dissolved in DMSO (100%) and made up in the external bather at a concentration of 1 μM. All experiments were conducted at room temperature (22-24° C.).
A cell suspension (10 ml), with a density of 100,000 cells/ml, was aliquoted into a 15 ml centrifuge tube and transferred to an incubator (37° C., 5% CO2) for approximately one hour before use. Following 60 min incubation, a tube was taken and centrifuged at 1000 rpm for 4 mins at room temperature. 9.5 ml supernatant was thene discarded, leaving a cell pellet at the bottom of the tube. The pellet was then resuspended using 100 μl of cold (4° C.), filtered (0.22 μm), 0.2% BSA/bather solution (0.02 g BSA/10 ml bather). The bottom of the tube was manually agitated gently until the solution became cloudy with cells. The 100 μl cell resuspension solution was then stored on the bench at 4° C. (using a Peltier-based temperature control device) until used.
A length of capillary glass (1B150F-4, WPI) was dipped into the cell suspension solution, such that ˜3 cm column of fluid was taken up by capillary action. An Ag/AgCl wire was dropped into the non-dipped end of the capillary also. The outside of the solution-filled end of the capillary was then dried and the capillary was loaded into the AutoPatch™.
Borosilicate glass patch pipettes (from 1.5 mm OD, thin-walled filamented, GC150-TF capillary glass, Harvard) were pulled using a DMZ pipette puller (Zeitz Instruments), and were back-filled using the internal pipette solution, being careful that no bubbles remain at the tip or in the body of the pipette. Patch pipettes typically had resistances of 2.3-3.5 MΩ. Once filled, the pipette tip and a proportion of the shaft (˜15 mm) were dipped into Sigmacote (Sigma). The recording pipette was then loaded into the AutoPatch™. Automated patch-clamping was initiated by the operator, but thereafter AutoPatch.exe continued the experiment providing that pre-set conditions and criteria were satisfied.
Whole cell patch-clamp recordings were made using the AutoPatch™ rig, which incorporated an EPC9 amplifier (HEKA, Germany) under control of Pulse software (v8.54, HEKA, Germany), a motion controller with 2 translators (Newport, UK), valve controller (VF1) and a c-level suction device all at room temperature (22-24° C.). This equipment was completely under the control of AutoPatch.exe and operator intervention was only made when there was a requirement to refill the drug reservoirs or to prevent the loss of a cell due to a technical error. Cells with an Rseries greater than 18MΩ were discounted from the experiment.
Qualification stages prior to perfusion and drug application ensured that the observed current met the criteria for the experiment. Only those cells with an IK>[…] were used for experiments. Cells were continuously perfused with external solution at a flow rate of 1.8-2 ml/minute. […] Online analysis of the hKv1.5 current during the application of compounds was performed by the AutoPatch™ software.
Electrophysiology voltage-step protocols and analysis of data was performed as follows. Data was sampled at 5 kHz, and filtered with a −3 dB bandwidth of 2.5 kHz. Cells were held at a voltage of −80 mV. Currents were evoked to a voltage step for 1000 ms in duration at 0 mV every 5 s. Currents were analysed using Pulsefit software (v8.54, HEKA, Germany), with the total charge measured during the whole of the voltage step. […]

SMILES strings stand for the structures.

T1 sequence (P22460 whole entry): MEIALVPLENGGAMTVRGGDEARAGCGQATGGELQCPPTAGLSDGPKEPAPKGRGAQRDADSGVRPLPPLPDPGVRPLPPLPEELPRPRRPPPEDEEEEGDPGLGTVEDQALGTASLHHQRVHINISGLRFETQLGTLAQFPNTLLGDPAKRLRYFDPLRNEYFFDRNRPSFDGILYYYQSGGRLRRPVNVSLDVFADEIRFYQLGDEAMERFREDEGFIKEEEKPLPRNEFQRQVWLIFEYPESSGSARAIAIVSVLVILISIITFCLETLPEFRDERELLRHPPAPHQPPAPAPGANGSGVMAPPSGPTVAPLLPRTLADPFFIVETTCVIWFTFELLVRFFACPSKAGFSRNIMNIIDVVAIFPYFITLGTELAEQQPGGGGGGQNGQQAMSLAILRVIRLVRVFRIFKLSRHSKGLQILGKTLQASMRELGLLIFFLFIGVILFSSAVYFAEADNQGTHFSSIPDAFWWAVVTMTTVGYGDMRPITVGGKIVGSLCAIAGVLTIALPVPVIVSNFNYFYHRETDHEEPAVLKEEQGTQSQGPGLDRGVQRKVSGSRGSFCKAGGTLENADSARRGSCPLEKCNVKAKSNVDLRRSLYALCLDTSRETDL

`Fc1ccc(-c2coc3ncnc(NCc4ccccn4)c23)cc1` [Example 21, 5-(4-Fluorophenyl)-N-(pyridin-2-ylmethyl)furo[2,3-d]pyrimidin-4-amine]: the melting point lay within 162 to 164 °C. Besides, 1 µM produced 39.8% inhibition against human Kv1.5.

On to `c1ccc(-c2coc3ncnc(NCc4ccccn4)c23)cc1` [Example 22, 5-Phenyl-N-(pyridin-2′-ylmethyl)furo[2,3-d]pyrimidin-4-amine], for which the “% Inhibition @1 (μM)” value at human Kv1.5 is given as 54.00%.

Take `Clc1ccc(-c2coc3ncnc(NCc4ccccn4)c23)cc1` [Example 23, 5-(4-Chlorophenyl)-N-(pyridin-2′-ylmethyl)furo[2,3-d]pyrimidin-4-amine]: the “% Inhibition @1 (μM)” value on human Kv1.5 is on record as 83.80%.

Turning to `COc1ccc(-c2coc3ncnc(NCc4ccccn4)c23)cc1OC` [Example 24, 5-(3,4-Dimethoxyphenyl)-N-(pyridin-2′-ylmethyl)furo[2,3-d]pyrimidin-4-amine], the “% Inhibition @1 (μM)” value at human Kv1.5 was 15.81%.

Turning to `c1ccc(CNc2ncnc3occ(-c4ccc5c(c4)OCO5)c23)nc1` [Example 25, 5-(1,3-Benzodioxol-5′-yl)-N-(pyridin-2′-ylmethyl)furo[2,3-d]pyrimidin-4-amine], the “% Inhibition @1 (μM)” value on human Kv1.5 is on record as 65.17%.

As for `Cc1oc2ncnc(NCc3ccccn3)c2c1-c1ccccc1` [Example 26, 6-Methyl-5-phenyl-N-(pyridin-2′-ylmethyl)furo[2,3-d]pyrimidin-4-amine], the “% Inhibition @1 (μM)” value at human Kv1.5 stood at 83.00%.

`COCCNc1nc(NCc2ccccn2)c2c(-c3ccccc3)coc2n1` [Example 41, N^2-(2-Methoxyethyl)-5-phenyl-N^4-pyridin-2-ylmethyl-furo[2,3-d]pyrimidine-2,4-diamine] showed a melting point of 96 to 98 °C. On human Kv1.5, this compound yielded an inhibition at 1 µM of 99%.

With `c1ccc(-c2coc3nc(N4CCOCC4)nc(NCc4ccccn4)c23)cc1` [Example 42, (2-Morpholin-4-yl-5-phenyl-furo[2,3-d]pyrimidin-4-yl)-puridin-2-ylmethyl-amine], at human Kv1.5, the “% Inhibition @1 (μM)” value is 99.00%.

In the case of `OCCN(CCO)c1nc(NCc2ccccn2)c2c(-c3ccccc3)coc2n1` [Example 43, 2-((2-Hydroxyethyl)-{5-Phenyl-4-[(pyridine-2-ylmethyl)-amino]-furo[2,3-d]pyrimidin-2-yl}-amino)-ethanol], the inhibition at 1 µM against human Kv1.5 stood at 82%.

Consider `OCC(CO)Nc1nc(NCc2ccccn2)c2c(-c3ccccc3)coc2n1` [Example 44, 2-{5-Phenyl-4-[(pyridin-2-ylmethyl)-amino]furo[2,3-d]pyrimidin-2-ylamino}-propane-1,3-diol], for which the inhibition at 1 µM on human Kv1.5 came out at 75%.

`OCCN(CCO)c1nc(NCc2ccccn2)c2c(-c3ccc(F)cc3)coc2n1` [Example 45, 2-((2-Hydroxyethyl)-{5-(4-fluorophenyl)-4-[(pyridine-2-ylmethyl)-amino]-furo[2,3-d]pyrimidin-2-yl}-amino)-ethanol]: at human Kv1.5, at 1 µM the inhibition was 42%.

Regarding `CN(C)c1nc(NCc2ccccn2)c2c(-c3ccccc3)coc2n1` [Example 46, N^2,N^2-Dimethyl-5-phenyl-N^4-pyridin-2-ylmethyl-furo[2,3-d]pyrimidine-2,4-diamine], the melting point is 108 to 110 °C. Besides, at human Kv1.5, the inhibition at 1 µM was found to be 99%.

For the compound `Cc1cccc(CNc2nc(N(C)C)nc3occ(-c4ccccc4)c23)n1` [Example 47, N^2,N^2-Dimethyl-N^4-(6-methyl-pyridin-2-ylmethyl)-5-phenyl-furo[2,3-d]pyrimidine-2,4-diamine], the melting point lay within 52 to 54 °C. The compound further came in with an inhibition at 1 µM against human Kv1.5 of 98%.

`CN(C)c1nc(NCc2ccco2)c2c(-c3ccccc3)coc2n1` [Example 48, N^4-Furan-2-ylmethyl-N^2,N^2-dimethyl-5-phenyl-furo[2,3-d]pyrimidine-2,4-diamine] had an inhibition at 1 µM against human Kv1.5 of 98%.

Turning to `Cc1oc2nc(N(C)C)nc(NCc3ccccn3)c2c1-c1ccccc1` [Example 49, 6,N^2,N^2-Trimethyl-5-phenyl-N4-pyridin-2-ylmethyl-furo[2,3-d]pyrimidine-2,4-diamine], at human Kv1.5, 1 µM produced 75% inhibition.

On to `Cc1oc2nc(N(C)C)nc(NCc3ccccn3)c2c1-c1ccc(F)cc1` [Example 50, 5-(4-Fluorophenyl)-6,N^2,N^2-trimethyl-N^4-pyridin-2-ylmethyl-furo[2,3-d]pyrimidine-2,4-diamine], for which the melting point lay in the range of 107 to 109 °C. Also, 1 µM produced 32% inhibition against human Kv1.5.

Compound `COCCOc1nc(NCc2ccccn2)c2c(-c3ccccc3)coc2n1` [Example 51, [2-(2-Methoxyethoxy)-5-phenyl-furo[2,3-d]pyrimidin-4-yl]-pyridin-2-ylmethylamine] yielded a melting point of 97 to 99 °C. The compound further registered an inhibition at 1 µM on human Kv1.5 of 99%.
